Test results as given in ChEMBL document CHEMBL3425491, “Development of novel ACK1/TNK2 inhibitors using a fragment-based approach” (J Med Chem, 2015).
≈ marks a conversion by molar mass, not a printed value. Values belong to the molecule of their own block, whether it stands above or below them. Calls of active or inactive are those of the source. No cut-off for these calls is given here.

Key:
Activated CDC42 kinase 1 [1] = target: T1, Activated CDC42 kinase 1 (Homo sapiens, UniProt Q07912); assay: Inhibition of human ACK1 kinase activity using biotinylated ATGRYYAMKIL - AKT peptide substrate assessed as phosphorylation at 10 uM by ELISA; type: single protein
Target sequence in this assay (Q07912 whole entry, looked up): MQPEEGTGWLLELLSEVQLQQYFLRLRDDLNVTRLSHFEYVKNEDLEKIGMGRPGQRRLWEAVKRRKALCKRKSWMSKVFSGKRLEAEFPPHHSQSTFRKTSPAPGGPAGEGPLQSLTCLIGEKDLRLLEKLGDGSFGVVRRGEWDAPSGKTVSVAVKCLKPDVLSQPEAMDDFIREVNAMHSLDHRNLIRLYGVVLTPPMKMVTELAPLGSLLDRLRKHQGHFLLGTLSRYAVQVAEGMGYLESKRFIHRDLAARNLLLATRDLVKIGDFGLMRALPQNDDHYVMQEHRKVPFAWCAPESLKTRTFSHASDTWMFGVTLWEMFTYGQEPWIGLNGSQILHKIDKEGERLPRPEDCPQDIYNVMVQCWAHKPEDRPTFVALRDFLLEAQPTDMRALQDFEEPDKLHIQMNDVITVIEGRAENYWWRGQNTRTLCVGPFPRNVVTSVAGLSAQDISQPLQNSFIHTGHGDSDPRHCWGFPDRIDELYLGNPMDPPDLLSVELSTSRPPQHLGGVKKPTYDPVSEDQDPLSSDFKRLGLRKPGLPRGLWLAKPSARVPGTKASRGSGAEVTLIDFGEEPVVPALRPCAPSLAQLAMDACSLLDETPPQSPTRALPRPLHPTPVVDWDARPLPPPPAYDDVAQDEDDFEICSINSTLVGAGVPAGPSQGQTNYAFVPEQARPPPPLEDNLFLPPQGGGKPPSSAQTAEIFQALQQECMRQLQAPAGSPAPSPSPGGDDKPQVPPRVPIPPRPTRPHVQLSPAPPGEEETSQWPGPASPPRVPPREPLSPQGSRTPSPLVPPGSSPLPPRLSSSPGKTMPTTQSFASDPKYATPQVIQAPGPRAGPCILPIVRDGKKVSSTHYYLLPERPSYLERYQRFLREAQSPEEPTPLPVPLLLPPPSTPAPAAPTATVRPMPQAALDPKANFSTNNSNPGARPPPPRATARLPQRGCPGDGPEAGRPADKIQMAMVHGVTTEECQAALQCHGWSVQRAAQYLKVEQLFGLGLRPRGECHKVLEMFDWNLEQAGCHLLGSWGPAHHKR

[2] = target: Serine/threonine-protein kinase mTOR (Homo sapiens) (UniProt P42345); assay: Inhibition of human mTOR/FRAP1 using 4EBP1 peptide substrate at 1 uM by 33P Hotspot assay
[3] = target: Tyrosine-protein kinase FRK (Homo sapiens) (UniProt P42685); assay: Inhibition of human FRK/PTK5 using poly[Glu:Tyr] (4:1) peptide substrate at 1 uM by 33P Hotspot assay
[4] = target: Epidermal growth factor receptor (Homo sapiens) (UniProt P00533); assay: Inhibition of human EGFR using poly[Glu:Tyr] (4:1) peptide substrate at 1 uM by 33P Hotspot assay
[5] = target: Tyrosine-protein kinase receptor UFO (Homo sapiens) (UniProt P30530); assay: Inhibition of human AXL using EAIYAAPFAKKK peptide substrate at 1 uM by 33P Hotspot assay
[6] = target: T2, Non-receptor tyrosine-protein kinase TYK2 (Homo sapiens, UniProt P29597); assay: Inhibition of human TYK2 using KKSRGDYMTMQIG peptide substrate by 33P Hotspot assay
T2 sequence (P29597 whole entry): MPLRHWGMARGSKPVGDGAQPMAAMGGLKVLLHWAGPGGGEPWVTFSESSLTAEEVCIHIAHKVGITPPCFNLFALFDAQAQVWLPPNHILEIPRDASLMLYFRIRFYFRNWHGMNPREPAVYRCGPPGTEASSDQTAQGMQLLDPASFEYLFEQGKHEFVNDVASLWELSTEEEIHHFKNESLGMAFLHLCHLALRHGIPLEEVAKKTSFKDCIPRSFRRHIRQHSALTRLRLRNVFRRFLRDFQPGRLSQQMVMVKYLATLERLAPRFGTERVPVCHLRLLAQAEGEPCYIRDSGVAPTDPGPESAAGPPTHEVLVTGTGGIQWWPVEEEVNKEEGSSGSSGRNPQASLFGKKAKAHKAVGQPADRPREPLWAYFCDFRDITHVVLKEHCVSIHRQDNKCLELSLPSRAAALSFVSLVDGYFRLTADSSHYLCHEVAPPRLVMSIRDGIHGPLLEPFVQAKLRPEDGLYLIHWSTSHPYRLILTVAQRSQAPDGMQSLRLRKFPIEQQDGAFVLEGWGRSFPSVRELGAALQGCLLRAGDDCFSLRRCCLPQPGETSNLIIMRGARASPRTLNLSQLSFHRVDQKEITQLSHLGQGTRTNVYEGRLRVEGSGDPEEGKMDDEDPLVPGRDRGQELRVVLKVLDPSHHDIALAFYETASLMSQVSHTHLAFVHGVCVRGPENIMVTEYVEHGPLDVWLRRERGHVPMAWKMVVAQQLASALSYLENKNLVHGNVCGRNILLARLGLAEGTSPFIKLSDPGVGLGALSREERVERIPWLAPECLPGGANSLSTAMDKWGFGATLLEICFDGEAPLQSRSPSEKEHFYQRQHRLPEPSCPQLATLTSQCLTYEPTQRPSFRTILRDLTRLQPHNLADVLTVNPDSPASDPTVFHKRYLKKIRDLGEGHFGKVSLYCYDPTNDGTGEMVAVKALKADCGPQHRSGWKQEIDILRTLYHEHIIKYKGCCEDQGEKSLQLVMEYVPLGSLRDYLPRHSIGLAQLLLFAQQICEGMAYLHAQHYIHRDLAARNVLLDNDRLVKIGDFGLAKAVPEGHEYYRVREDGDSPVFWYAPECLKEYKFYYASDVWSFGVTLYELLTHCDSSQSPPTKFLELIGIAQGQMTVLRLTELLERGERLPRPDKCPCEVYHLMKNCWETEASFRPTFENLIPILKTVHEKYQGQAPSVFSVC

[7] = target: Glycogen synthase kinase-3 alpha (Homo sapiens) (UniProt P49840); settings: at 1 µM
[8] = target: Serine/threonine-protein kinase TBK1 (Homo sapiens) (UniProt Q9UHD2); assay: Inhibition of human TBK1 using KRRRAL[pS]VASLPGL peptide substrate at 1 uM by 33P Hotspot assay
[9] = target: Serine/threonine-protein kinase Sgk1 (Homo sapiens) (UniProt O00141); assay: Inhibition of human SGK1 using KGSGSGRPRTSSFAEG peptide substrate at 1 uM by 33P Hotspot assay
[10] = target: T3, Fibroblast growth factor receptor 1 (Homo sapiens, UniProt P11362); assay: Inhibition of human FGFR1 using KKKSPGEYVNIEFG peptide substrate at 1 uM by 33P Hotspot assay
[11] = target: Insulin receptor (Homo sapiens) (UniProt P06213); assay: Inhibition of human IR using poly[Glu:Tyr] (4:1) peptide substrate at 1 uM by 33P Hotspot assay
[12] = target: Serine/threonine-protein kinase pim-1 (Homo sapiens) (UniProt P11309); assay: Inhibition of human PIM1 using KKRNRTLTK peptide substrate at 1 uM by 33P Hotspot assay
[13] = target: Serine/threonine-protein kinase Chk1 (Homo sapiens, UniProt O14757); assay: Inhibition of human CHK1 using KKKVSRSGLYRSPSMPENLNRPR peptide substrate by 33P Hotspot assay
LNCaP = assay: cells; settings: Homo sapiens, 72 h
[14] = Solubility in PBS with 10% DMSO; type: physicochemical; settings: buffer
[15] = target: Mitogen-activated protein kinase kinase kinase 8 (Homo sapiens) (UniProt P41279); assay: Inhibition of human COT1/MAP3K8 using MEK1 (K97R) substrate at 1 uM by 33P Hotspot assay
[16] = target: Hepatocyte growth factor receptor (Homo sapiens) (UniProt P08581); assay: Inhibition of human c-MET using KKKSPGEYVNIEFG peptide substrate at 1 uM by 33P Hotspot assay
[17] = target: High affinity nerve growth factor receptor (Homo sapiens) (UniProt P04629); assay: Inhibition of human TRKA using poly[Glu:Tyr] (4:1) peptide substrate at 1 uM by 33P Hotspot assay
[18] = target: Serine/threonine-protein kinase Chk1 (Homo sapiens) (UniProt O14757); assay: Inhibition of human CHK1 using KKKVSRSGLYRSPSMPENLNRPR peptide substrate at 1 uM by 33P Hotspot assay
[19] = target: Wee1-like protein kinase (Homo sapiens) (UniProt P30291); assay: Inhibition of human WEE1 using myelin basic protein substrate at 1 uM by 33P Hotspot assay
[20] = target: T4, Tyrosine-protein kinase JAK2 (Homo sapiens, UniProt O60674); assay: Inhibition of human JAK2 using poly[Glu:Tyr] (4:1) peptide substrate at 1 uM by 33P Hotspot assay
T4 sequence (O60674 whole entry): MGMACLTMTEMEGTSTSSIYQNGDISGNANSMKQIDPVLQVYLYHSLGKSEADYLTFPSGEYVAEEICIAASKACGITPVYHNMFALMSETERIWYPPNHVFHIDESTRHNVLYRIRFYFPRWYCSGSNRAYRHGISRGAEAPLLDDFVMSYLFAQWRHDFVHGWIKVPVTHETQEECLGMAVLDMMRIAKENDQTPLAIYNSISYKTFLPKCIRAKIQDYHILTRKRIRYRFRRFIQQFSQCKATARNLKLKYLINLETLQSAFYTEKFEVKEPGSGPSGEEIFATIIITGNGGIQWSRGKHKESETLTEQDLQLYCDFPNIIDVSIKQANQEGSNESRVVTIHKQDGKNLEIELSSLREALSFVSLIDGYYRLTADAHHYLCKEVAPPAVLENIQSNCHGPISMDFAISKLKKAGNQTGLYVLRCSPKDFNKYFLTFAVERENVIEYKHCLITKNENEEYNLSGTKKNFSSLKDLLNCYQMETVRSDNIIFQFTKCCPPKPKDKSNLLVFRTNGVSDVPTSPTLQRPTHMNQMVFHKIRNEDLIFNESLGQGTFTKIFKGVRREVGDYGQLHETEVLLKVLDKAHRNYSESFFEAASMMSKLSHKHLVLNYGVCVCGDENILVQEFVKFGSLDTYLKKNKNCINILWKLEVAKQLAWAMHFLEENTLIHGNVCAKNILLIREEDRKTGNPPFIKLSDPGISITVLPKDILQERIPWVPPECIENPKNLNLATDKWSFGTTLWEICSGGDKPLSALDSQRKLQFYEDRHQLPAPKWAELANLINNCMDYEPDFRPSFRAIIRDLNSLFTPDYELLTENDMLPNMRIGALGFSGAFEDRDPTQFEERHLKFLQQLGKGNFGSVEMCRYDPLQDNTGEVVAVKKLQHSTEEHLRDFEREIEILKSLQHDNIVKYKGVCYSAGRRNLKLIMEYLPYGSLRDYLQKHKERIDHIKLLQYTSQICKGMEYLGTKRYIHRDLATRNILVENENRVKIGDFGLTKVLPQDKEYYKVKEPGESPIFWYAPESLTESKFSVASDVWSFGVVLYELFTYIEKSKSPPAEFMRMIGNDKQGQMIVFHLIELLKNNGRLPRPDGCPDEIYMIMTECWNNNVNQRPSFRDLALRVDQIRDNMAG

[21] = target: Tyrosine-protein kinase Lck (Homo sapiens, UniProt P06239)
Chain of Tyrosine-protein kinase Lck (P06239 whole entry): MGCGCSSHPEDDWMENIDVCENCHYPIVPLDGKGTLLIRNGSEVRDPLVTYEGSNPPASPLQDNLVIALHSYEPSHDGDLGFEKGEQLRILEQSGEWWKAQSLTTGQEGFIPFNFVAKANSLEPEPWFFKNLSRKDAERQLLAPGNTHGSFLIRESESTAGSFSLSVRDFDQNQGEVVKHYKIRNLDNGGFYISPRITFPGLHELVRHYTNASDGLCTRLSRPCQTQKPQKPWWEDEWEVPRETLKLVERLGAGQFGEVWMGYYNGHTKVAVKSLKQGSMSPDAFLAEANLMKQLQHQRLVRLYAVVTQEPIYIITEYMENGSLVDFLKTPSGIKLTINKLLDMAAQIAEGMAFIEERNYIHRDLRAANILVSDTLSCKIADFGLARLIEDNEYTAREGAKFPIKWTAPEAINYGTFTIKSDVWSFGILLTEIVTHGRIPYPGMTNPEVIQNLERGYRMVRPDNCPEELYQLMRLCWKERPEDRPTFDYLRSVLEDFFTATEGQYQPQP

[22] = target: Tyrosine-protein kinase ABL1 (Homo sapiens, UniProt P00519); assay: Inhibition of human ABL1 using EAIYAAPFAKKK peptide substrate by 33P Hotspot assay
[23] = target: Vascular endothelial growth factor receptor 2 (Homo sapiens) (UniProt P35968); assay: Inhibition of human KDR/VEGFR2 using poly[Glu:Tyr] (4:1) peptide substrate at 1 uM by 33P Hotspot assay
[24] = target: Inhibitor of nuclear factor kappa-B kinase subunit alpha (Homo sapiens) (UniProt O15111); assay: Inhibition of human IKKa/CHUK using KKKKERLLDDRHDSGLDSMKDEE peptide substrate at 1 uM by 33P Hotspot assay
[25] = target: RAC-alpha serine/threonine-protein kinase (Homo sapiens) (UniProt P31749); assay: Inhibition of human AKT1 using KGSGSGRPRTSSFAEG peptide substrate at 1 uM by 33P Hotspot assay
Chain of RAC-alpha serine/threonine-protein kinase (Homo sapiens) (P31749 whole entry): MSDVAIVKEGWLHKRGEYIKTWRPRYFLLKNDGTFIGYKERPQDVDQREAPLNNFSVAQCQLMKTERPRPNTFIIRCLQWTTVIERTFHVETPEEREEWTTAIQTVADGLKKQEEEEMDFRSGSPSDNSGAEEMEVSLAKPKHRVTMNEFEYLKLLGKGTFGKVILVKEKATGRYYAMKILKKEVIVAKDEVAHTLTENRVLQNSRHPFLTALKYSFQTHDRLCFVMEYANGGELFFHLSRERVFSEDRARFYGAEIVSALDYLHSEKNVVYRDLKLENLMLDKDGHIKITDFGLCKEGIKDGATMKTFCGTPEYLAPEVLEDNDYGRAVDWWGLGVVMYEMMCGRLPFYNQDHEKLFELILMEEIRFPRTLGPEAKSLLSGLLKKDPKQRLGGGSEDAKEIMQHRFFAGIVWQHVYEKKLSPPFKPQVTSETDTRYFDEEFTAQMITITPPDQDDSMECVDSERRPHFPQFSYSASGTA

LAPC4 = assay: Anticancer activity against human LAPC4 cells assessed as inhibition of cell growth up to 10 uM after 72 hrs by trypan blue exclusion assay; type: functional, cell-based
[26] = target: Receptor tyrosine-protein kinase erbB-2 (Homo sapiens) (UniProt P04626); assay: Inhibition of human ERBB2/HER2 using poly[Glu:Tyr] (4:1) peptide substrate at 1 uM by 33P Hotspot assay
[27] = target: Angiopoietin-1 receptor (Homo sapiens) (UniProt Q02763); assay: Inhibition of human TIE2/TEK using poly[Glu:Tyr] (4:1) peptide substrate at 1 uM by 33P Hotspot assay
[28] = target: T2, Non-receptor tyrosine-protein kinase TYK2; assay: Inhibition of human TYK2 using KKSRGDYMTMQIG peptide substrate at 1 uM by 33P Hotspot assay
[29] = target: Ephrin type-A receptor 2 (Homo sapiens) (UniProt P29317); assay: Inhibition of human EPHA2 using poly[Glu:Tyr] (4:1) peptide substrate at 1 uM by 33P Hotspot assay
[30] = target: Tyrosine-protein kinase BTK (Homo sapiens) (UniProt Q06187); assay: Inhibition of human BTK using […] peptide substrate at 1 uM by 33P Hotspot assay
[31] = target: Tyrosine-protein kinase CSK (Homo sapiens) (UniProt P41240); assay: Inhibition of human CSK using poly[Glu:Tyr] (4:1) peptide substrate at 1 uM by 33P Hotspot assay
[32] = target: Ribosomal protein S6 kinase beta-1 (Homo sapiens) (UniProt P23443); assay: Inhibition of human p70S6K/RPS6KB1 using KKRNRTLTK peptide substrate at 1 uM by 33P Hotspot assay
Chain of Ribosomal protein S6 kinase beta-1 (Homo sapiens) (P23443 whole entry, looked up): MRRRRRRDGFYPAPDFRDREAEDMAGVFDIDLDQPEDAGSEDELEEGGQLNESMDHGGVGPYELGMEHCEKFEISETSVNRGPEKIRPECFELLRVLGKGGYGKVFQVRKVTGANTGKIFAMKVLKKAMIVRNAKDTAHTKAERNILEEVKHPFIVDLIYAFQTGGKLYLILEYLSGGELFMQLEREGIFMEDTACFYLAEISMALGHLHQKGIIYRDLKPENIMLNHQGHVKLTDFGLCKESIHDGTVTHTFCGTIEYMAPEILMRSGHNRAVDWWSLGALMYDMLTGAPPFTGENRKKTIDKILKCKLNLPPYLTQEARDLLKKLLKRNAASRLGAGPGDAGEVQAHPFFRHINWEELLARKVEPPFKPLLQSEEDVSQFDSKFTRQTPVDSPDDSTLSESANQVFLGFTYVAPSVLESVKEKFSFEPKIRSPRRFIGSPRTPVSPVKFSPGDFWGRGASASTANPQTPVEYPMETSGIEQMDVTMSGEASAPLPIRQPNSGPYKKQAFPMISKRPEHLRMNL

[33] = target: Proto-oncogene tyrosine-protein kinase ROS (Homo sapiens, UniProt P08922); assay: Inhibition of human ROS/ROS1 using KKKSPGEYVNIEFG peptide substrate by 33P Hotspot assay
[34] = target: RAF proto-oncogene serine/threonine-protein kinase (Homo sapiens) (UniProt P04049); assay: Inhibition of human RAF1 using MEK1 (K97R) peptide substrate at 1 uM by 33P Hotspot assay
[35] = target: Platelet-derived growth factor receptor alpha (Homo sapiens) (UniProt P16234); assay: Inhibition of human PDGFRalpha using poly[Glu:Tyr] (4:1) peptide substrate at 1 uM by 33P Hotspot assay
Plasma = assay: Half life in human plasma; type: ADME, cell-free
[36] = target: T3, Fibroblast growth factor receptor 1; assay: Inhibition of human FGFR1 using KKKSPGEYVNIEFG peptide substrate by 33P Hotspot assay
[37] = target: T4, Tyrosine-protein kinase JAK2; assay: Inhibition of human JAK2 using poly[Glu:Tyr] (4:1) peptide substrate by 33P Hotspot assay
cells = settings: Homo sapiens, VCaP, 72 h
[38] = target: Mitogen-activated protein kinase 3 (Homo sapiens) (UniProt P27361); assay: Inhibition of human ERK1 using myelin basic protein substrate at 1 uM by 33P Hotspot assay
Activated CDC42 kinase 1 [39] = target: T1, Activated CDC42 kinase 1; assay: Inhibition of ACK1 kinase (unknown origin)
Target sequence in this assay (Q07912 whole entry): as the sequence (Q07912 whole entry, looked up) above

SMILES: Oc1ccc(Nc2ncc(Br)c(NCC3CCCO3)n2)cc1F (stereo unspecified)
inhibition (Activated CDC42 kinase 1 [1]): 76%

SMILES: Oc1ccc(Nc2ncc(Cl)c(NCC3CCCO3)n2)cc1 (stereo unspecified)
inhibition (Activated CDC42 kinase 1 [1]): 65%

SMILES: COc1ccc(Nc2ncc(Br)c(NCC3CCCO3)n2)cc1 (stereo unspecified)
inhibition (Activated CDC42 kinase 1 [1]): 67%

SMILES: CN1CCN(c2ccc(Nc3ncc(Cl)c(NC[C@H]4CCCO4)n3)cc2)CC1
inhibition [2]: -5.6%
inhibition [3]: 41.3%
inhibition [4]: -2.8%
inhibition [5]: 75.9%
IC50 [6]: 5 nM
inhibition [7]: 5.1%
inhibition [8]: 71.8%
inhibition [9]: 26%
inhibition [10]: 86.4%
inhibition [11]: 46.6%
inhibition [12]: 3.6%
IC50 [13]: 154 nM
IC50 (LNCaP): 1800 nM
solubility [14]: 1000 µg/mL (≈ 2480 µM)
inhibition [15]: -7.7%
inhibition [16]: 23.1%
inhibition [17]: 63.2%
inhibition [18]: 84.8%
inhibition [19]: 12.4%
inhibition [20]: 98.6%
IC50 [21]: 136 nM
IC50 [22]: 206 nM
inhibition [23]: 67.3%
inhibition [24]: 0.4%
inhibition [25]: 4.7%
inhibition (LAPC4): Active
inhibition [26]: -1.1%
inhibition [27]: 32%
inhibition [28]: 98.9%
inhibition [29]: 31.9%
inhibition [30]: 45.1%
inhibition [31]: 26.3%
inhibition [32]: 24.1%
IC50 [33]: 124 nM
inhibition [34]: -0.8%
inhibition [35]: 42.7%
t1/2 (Plasma): > 6 h
IC50 [36]: 160 nM
IC50 [37]: 6 nM
IC50 (cells): 2000 nM
inhibition [38]: 1.9%

SMILES: O=C(Nc1c(F)cccc1Cl)c1cnc(Nc2ccc(O)cc2)nc1NCC1CCCO1 (racemic)
inhibition (Activated CDC42 kinase 1 [1]): 85%

SMILES: c1ccc(-c2oc3ncnc(NC[C@@H]4CCCO4)c3c2-c2ccccc2)cc1
inhibition (LAPC4): Active

SMILES: Brc1cnc(Nc2ccc(C3CCNCC3)cc2)nc1NCC1CCCO1 (racemic)
inhibition (Activated CDC42 kinase 1 [1]): 84.5%

SMILES: CN(C)CCOc1ccc(-c2oc3ncnc(NCC4SCCS4)c3c2-c2ccccc2)cc1
Ki [21]: 138 nM
Ki (Activated CDC42 kinase 1 [39]): 0.3 nM

SMILES: O=C(Nc1c(F)cccc1Cl)c1cnc(Nc2ccc(C3CCNCC3)cc2)nc1NCC1CCCO1 (racemic)
inhibition (Activated CDC42 kinase 1 [1]): 97%

SMILES: CN(C)CCNC(=O)CCc1ccc(Nc2ncc(Cl)c(NCC3CCCO3)n2)cc1 (stereo unspecified)
inhibition (Activated CDC42 kinase 1 [1]): 68%

SMILES: COc1ccc(Nc2ncc(C(=O)Nc3c(F)cccc3Cl)c(NCC3CCCO3)n2)cc1 (racemic)
inhibition (Activated CDC42 kinase 1 [1]): 68%

SMILES: O=C(Nc1c(F)cccc1Cl)c1cnc(Nc2ccc(O)c(F)c2)nc1NCC1CCCO1 (stereo unspecified)
inhibition (Activated CDC42 kinase 1 [1]): 66%

SMILES: O=C(O)Cc1ccc(Nc2ncc(Br)c(NCC3CCCO3)n2)cc1 (stereo unspecified)
inhibition (Activated CDC42 kinase 1 [1]): 61%

SMILES: COC(C)(C)CCn1nc(Nc2c(C)cccc2C)c2cnc(Nc3ccccc3)nc21
IC50 (Activated CDC42 kinase 1 [39]): 2 nM

SMILES: O=C(O)CCc1ccc(Nc2ncc(Br)c(NCC3CCCO3)n2)cc1 (stereo unspecified)
inhibition (Activated CDC42 kinase 1 [1]): 74.5%

Second part, led by results:

inhibition (Activated CDC42 kinase 1 [1]): 82%
SMILES: Clc1cnc(Nc2ccc(N3CCNCC3)cc2)nc1NCC1CCCO1 (racemic)

inhibition (Activated CDC42 kinase 1 [1]): 92%
SMILES: O=C(O)CCC(=O)N1CCN(c2ccc(Nc3ncc(Br)c(NCC4CCCO4)n3)cc2)CC1 (stereo unspecified)

inhibition (Activated CDC42 kinase 1 [1]): 79.5%
SMILES: Clc1cnc(Nc2ccc(C3CCNCC3)cc2)nc1NCC1CCCO1 (racemic)

inhibition (Activated CDC42 kinase 1 [1]): 93%
SMILES: O=C(O)C1CCN(c2ccc(Nc3ncc(Cl)c(NCC4CCCO4)n3)cc2)CC1 (racemic)

inhibition (Activated CDC42 kinase 1 [1]): 16%
SMILES: CN1CCN(c2ccc(Nc3nccc(NCC4CCCO4)n3)cc2)CC1 (stereo unspecified)

inhibition (Activated CDC42 kinase 1 [1]): 90.5%
SMILES: CN1CCN(c2ccc(Nc3ncc(Cl)c(NCC4CCCO4)n3)cc2)CC1 (racemic)

inhibition (Activated CDC42 kinase 1 [1]): 97%
SMILES: CN1CCN(c2ccc(Nc3ncc(C(=O)Nc4c(F)cccc4Cl)c(NCC4CCCO4)n3)cc2)CC1 (stereo unspecified)

inhibition (Activated CDC42 kinase 1 [1]): 76.5%
SMILES: O=C(O)Cc1ccc(Nc2ncc(Cl)c(NCC3CCCO3)n2)cc1 (stereo unspecified)

inhibition (Activated CDC42 kinase 1 [1]): 89%
SMILES: Brc1cnc(Nc2ccc(N3CCOCC3)cc2)nc1NCC1CCCO1 (racemic)

inhibition (Activated CDC42 kinase 1 [1]): 74%
SMILES: O=C(O)CCc1ccc(Nc2ncc(Cl)c(NCC3CCCO3)n2)cc1 (stereo unspecified)

inhibition (Activated CDC42 kinase 1 [1]): 89.5%
SMILES: O=C(Nc1c(F)cccc1Cl)c1cnc(Nc2ccc(N3CCNCC3)cc2)nc1NCC1CCCO1 (racemic)

inhibition (Activated CDC42 kinase 1 [1]): 82%
SMILES: O=C(Nc1c(F)cccc1Cl)c1cnc(Nc2ccc(N3CCOCC3)cc2)nc1NCC1CCCO1 (racemic)

inhibition (Activated CDC42 kinase 1 [1]): 93%
SMILES: CN1CCN(c2ccc(Nc3ncc(Br)c(NCC4CCCO4)n3)cc2)CC1 (stereo unspecified)

solubility [14]: 900 µg/mL (≈ 2230 µM)
IC50 (Activated CDC42 kinase 1 [39]): 82 nM
t1/2 (Plasma): > 6 h
IC50 (cells): 4000 nM
SMILES: CN1CCN(c2ccc(Nc3ncc(Cl)c(NC[C@@H]4CCCO4)n3)cc2)CC1
inhibition (LAPC4): Active

inhibition (Activated CDC42 kinase 1 [1]): 85%
SMILES: O=C(O)C1CCN(c2ccc(Nc3ncc(Br)c(NCC4CCCO4)n3)cc2)CC1 (racemic)

inhibition (Activated CDC42 kinase 1 [1]): 60%
SMILES: O=C(O)CCCc1ccc(Nc2ncc(Cl)c(NCC3CCCO3)n2)cc1 (stereo unspecified)
